Results taken from paper PMC7957705 (Molecules, 2021).
Like-named read-outs stand apart in the source and are kept apart here. Blank lines part the entries; values can stand above or below the compound they belong to. Where a SMILES comes first, the peptide text is derived from it. Bridges are numbered along the chain shown (N, C = ends). Triazole bridges read from a SMILES are 1,4-linked. [ ]: non-standard residue; d: D form. The star is where a group is joined. Benzoyl(4-guanidino) = N=C(N)Nc1ccc(C(=O)*)cc1; Aha = [N-]=[N+]=NCC[C@H](N)C(=O)O; β3hV = CC(C)[C@H](N)CC(=O)O; Pra = C#CC[C@H](N)C(=O)O

How the values were obtained:
[1] = test system: treated animals; settings: cited from earlier work
[2] = target: T1, human MCH-R1 (Homo sapiens, UniProt Q99705); experiment: MCH-induced cytosolic Ca2+ ion mobilization, antagonist effect; format: cell-based; settings: for Ki: antagonism of MCH-induced cytosolic Ca2+ mobilization, read-out: Ki (functionality, antagonism at MCH-R1)
T1 construct: expressed in transfected cells
T1 sequence (Q99705 whole entry): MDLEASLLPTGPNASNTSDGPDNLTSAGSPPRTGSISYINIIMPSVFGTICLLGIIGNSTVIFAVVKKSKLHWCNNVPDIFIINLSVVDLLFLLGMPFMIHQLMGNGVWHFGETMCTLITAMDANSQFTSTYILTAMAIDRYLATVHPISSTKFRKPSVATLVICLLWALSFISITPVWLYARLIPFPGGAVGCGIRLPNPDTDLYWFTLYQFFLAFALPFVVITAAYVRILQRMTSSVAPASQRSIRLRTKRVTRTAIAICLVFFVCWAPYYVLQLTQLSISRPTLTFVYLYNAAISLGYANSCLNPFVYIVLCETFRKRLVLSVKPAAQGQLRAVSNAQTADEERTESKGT
Experimental: The functional assay was run onto cells expressing the hMCH-R1 receptor, as described in Wang et al.. In brief, the cells are suspended in DMEM buffer (Invitrogen), then distributed in microplates at a density of 4.104 cells/well. The fluorescent probe (Fluo4 Direct, Invitrogen) mixed with probenecid in Hanks’ Balanced Salt solution (HBSS) (Invitrogen) complemented with 20 mM HEPES (Invitrogen) (pH 7.4) is then added into each well and equilibrated with the cells for 60 min at 37 °C, then 15 min at 22 °C. Then, the assay plates are positioned in a microplate reader (CellLux, PerkinElmer) which is used for the addition of the test compound, reference agonist or HBSS buffer (basal control), and the measurements of changes in fluorescence intensity, which varies proportionally to the free cytosolic Ca^2+ ion concentration. For stimulated control measurements, MCH at 300 nM is added in separate assay wells. The results are expressed as a percentage of the control response to 300 nM MCH. The standard reference agonist is MCH, which is tested in each experiment at several concentrations to generate a concentration-response curve from which its EC50 value is calculated. For the antagonist effect, the results are expressed as a percentage inhibition of the control response to 30 nM MCH, which was added to all tested wells and controls 5 min after the candidate products.

[3] = target: T1, human MCH-R1; experiment: Binding displacement of [125I]-[Phe13,Tyr19]-MCH at membranes expressing human MCH-R1
Experimental: Stable cell lines were obligatory for all receptor programs. We cloned the human receptor and established the cell line as previously described. In brief, HEK293 (HEK) cells were grown in Dulbecco’s Modified Eagle medium (DMEM) supplemented with 10% fetal calf serum, 2 mM glutamine, 100 IU/mL penicillin and […] streptomycin. They were seeded at 5 × 10^6 cells in T75 cm^2 culture flasks. One day later, they were transfected with […] of the pcDNA3.1 (Invitrogen, Groningen, The Netherlands) containing the human MCH-R1 using lipofectamine (Life Technologies, Cergy Pontoise, France), as previously described. One day later, cells were trypsinized, resuspended in a complete DMEM medium containing […] of geneticin and seeded at different dilutions in 96-well plates which were kept for 2 to 3 weeks in a humidified CO2 incubator. At the end of the selection period, isolated clones were picked up, amplified, and further characterized by cyclic AMP experiments. For each cell line, one positive clone was subcloned before being used for all of the cyclic AMP, [^35S]-GTPγS and receptor binding experiments necessary to characterize them. The stable HEK293 cell line expressing the human MCH-R1 was HEK-hMCH-R1.
Membrane preparations were classically made as previously described. In brief, the HEK-hMCH-R cell line was grown to confluency, harvested in PBS buffer containing 2 mM EDTA and centrifuged at 10,000× g for 5 min (4°C). The resulting pellet was suspended in 20 mM Hepes buffer (pH 7.5), containing 5 mM EGTA and homogenized using a Kinematica polytron. The homogenate was then centrifuged (95,000× g, 30 min, 4 °C) and the resulting pellet was suspended in 50 mM HEPES buffer (pH 7.5), containing 10 mM MgCl2 and 2 mM EGTA. Aliquots of membrane preparations were stored at −80 °C until use. Binding has been described in numerous publications and the test was based on Mac Donald et al.’s description. […] Nonspecific binding is determined in the presence of 0.1 μM MCH. […] The filters are dried and then counted for radioactivity in a scintillation counter (Topcount, Packard) using a scintillation cocktail (Microscint 0, Packard). The results are expressed as percentage inhibition of the control radioligand specific binding. The standard reference compound is MCH, which was tested in each experiment at 8 concentrations to obtain a competition curve from which its IC50 is calculated. The high level of assay robustness and reproducibility of each control monitored over several decades (internal data base, Eurofins) and included in every assay ensure results’ reliability even when performed only twice. […]

[4] = format: in vitro ADME; settings: for half-life: plasma
Experimental: Plasmas from 3 species (including commercially available human healthy donors) were adjusted to pH 7.4 if necessary. Incubations were performed at a concentration of 1 µM of the compound at 37 °C (in the presence of a final concentration of DMSO of 2.5% v/v. The incubations were stopped at 0, 15, 30, 60 and 120 min by methanol. Each time point was run in sextuplets. The sampling plates were then centrifuged (2500 rpm, 45 min, 4 °C) and the supernatants pooled. Samples were analyzed for parent compound by LC-MS/MS. The percentage of parent compound remaining at each time point relative to the 0 min sample is then calculated from LC-MS/MS peak area ratios. Then, the stability in plasma was evaluated by incubating human, rat or mouse plasma with the compound(s) as follows: the product (0.1 µM in TRIS buffer pH 7.4 0.1% BSA) was incubated with the plasma at 37 °C. The disappearance of the product was measured at 15, 45, 120, 240 and 300 min by mass spectrometry. Incubations were carried out in a robot Star (Hamilton France, Villebon-sur-Yvette, France). At each sampling time, 50 µL of the reaction medium was removed and diluted with 100 µL of acetonitrile. After centrifugation (20 min at + 4 °C, 4000 rpm), 75 µL of the supernatants was transferred into a 384 well injection plate. Ten microliters were injected onto UPLC coupled with a XEVO TQS mass spectrometer system (Waters, Milford, MA, USA). The unchanged product is quantified using a reference sample (0.1 µM) prepared during the incubation process. A second reference sample at 0.01 µM is prepared in the same conditions to verify the linearity of the detection method. The peak height (or area) is measured to calculate the half-life of the compound.

[5] = Stability and metabolite identification on mouse hepatocytes; format: in vitro ADME; settings: 20 µM, 5 h
Experimental: (§1) The stability of the compound was studied on hepatocyte cultures from Wistar rats and CD1 mice. The compound was incubated at 20 µM in the presence of 1.106 cells/mL for 5 h. The incubation was then stopped with acetonitrile (v/v) and the supernatant, after a brief centrifugation (2500 rpm, 5 min 4 °C) was submitted to LC-MS analysis, using a THERMO […] coupled to a Waters Acquity UPLC System equipped with a Waters Acquity UPLC C18 100 × 2.1 mm 1.7 µm column.

[6] = Stability and metabolite identification on rat hepatocytes; format: in vitro ADME; settings: 20 µM, 5 h
Experimental: as §1

[7] = target: T1, human MCH-R1; set-up: method as in PMID 19619599, PMID 23267345; settings: cited from earlier work
[8] = human plasma; settings: 37 °C, up to 300 min
[9] = rat plasma; settings: 37 °C, up to 300 min

Compound: CN(C)c1nc(NC2CCC(NCCc3ccc(Br)cc3OC(F)(F)F)CC2)nc2ccccc12 (centres unmarked) [ATC0065]
- behavioral concerns [1]: some behavioral concerns have been reported

- Ki [2]: 30 nM
- affinity at the MCH-R1 receptor (in words) [3]: poor binders
Compound: CSCC[C@H](NC(=O)[C@H](C)NC(=O)c1ccc(NC(=N)N)cc1)C(=O)N[C@@H](CC(C)C)C(=O)N[C@@H](CCCNC(=N)N)C(=O)N[C@H](C(=O)N[C@@H](CCCNC(=N)N)C(=O)N1CCC[C@H]1C(=O)N[C@@H](C)C(=O)N[C@@H](Cc1c[nH]c2ccccc12)C(=O)O)C(C)C [GPS13670] ({Benzoyl(4-guanidino)}-AMLRVRPAW-OH)

- stability in plasma (in words) ([4]; human): most stable compound
- half-life ([4]; human): ≥ 5 h
- initial dose remaining after incubation in mice plasma ([4]; mouse): ~20%
- stability in plasma (in words) ([4]; mouse): most stable compound
- half-life ([4]; mouse): 2.88 ± 0.15 h
- stability in plasma (in words) ([4]; rat): most stable compound
- half-life ([4]; rat): ≥ 5 h
- stability on hepatocytes [5]: mild stability
- stability on hepatocytes [6]: mild stability
- antagonistic functionality (in words) [2]: high picomolar range
- Ki [2]: 0.028 nM
- affinity at the MCH-R1 receptor (in words) [3]: superior affinity
Compound: CSCC[C@@H]1NC(=O)[C@@H](NC(=O)c2ccc(NC(=N)N)cc2)CCn2cc(nn2)C[C@@H](C(=O)N[C@@H](Cc2c[nH]c3ccccc23)C(=O)O)NC(=O)[C@@H]2CCCN2C(=O)[C@H](CCCNC(=N)N)NC(=O)C[C@H](C(C)C)NC(=O)[C@H](CCCNC(=N)N)NC(=O)[C@H](CC(C)C)NC1=O [GPS15290, pGua-[N3-hAla-MLR-βhVal-RP-hPra]-W-OH] ({Benzoyl(4-guanidino)}-[Aha]MLR[β3hV]RP[Pra]W-OH; triazole 1-8)

Compound: COc1cc(-n2cnc3cc(-c4ccc(Cl)cc4)sc3c2=O)ccc1OCCN1CCCC1 [GW803430]
- behavioral concerns ([1]; in vivo): some behavioral concerns have been reported

- half-life ([4]; human, pH 7.4): 0.233 ± 0.0167 h
- half-life ([4]; mouse, pH 7.4): 0.383 ± 0.03 h
- half-life ([4]; rat, pH 7.4): 1 ± 0.05 h
- Ki [2]: 5 nM
Compound: CSCC[C@@H]1NC(=O)[C@@H](NC(=O)c2ccc(NC(=N)N)cc2)CSSC[C@@H](C(=O)N[C@@H](Cc2c[nH]c3ccccc23)C(=O)O)NC(=O)[C@@H]2CCCN2C(=O)[C@H](CCCNC(=N)N)NC(=O)[C@H](Cc2ccc(O)cc2)NC(=O)[C@H](C(C)C)NC(=O)[C@H](CCCNC(=N)N)NC(=O)[C@H](CC(C)C)NC1=O [S38151, p-guanidinobenzoyl-Des-Gly(10)-MCH(7-17), reference compound] ({Benzoyl(4-guanidino)}-CMLRVYRPCW-OH; disulfide 1-9; N-terminus and C-terminus assumed)
- affinity at the human MCH-R1 receptor [7]: low nanomolar range

Compound: COCC1=C(C(=O)OC)[C@H](c2ccc(F)c(F)c2)N(C(=O)NCCCN2CCC(c3cccc(NC(C)=O)c3)CC2)C(=O)N1 [SNAP-7941]
- behavioral concerns [1]: some behavioral concerns have been reported

Compound: Gua-N3-hAla-Nle-Leu-Arg-βhVal-Arg-Pro-hPra-Trp
- not cleaved [8]: not metabolized at all, 100% of the initial dose found at 300 (5 h)
- not cleaved [9]: not metabolized at all, 100% of the initial dose found at 300 (5 h)

Compound: pGua-[N3-hAla-MLR-βhVal-RP-hPra]-W-OH
- not cleaved [8]: not metabolized at all, 100% of the initial dose found at 300 (5 h)
- not cleaved [9]: not metabolized at all, 100% of the initial dose found at 300 (5 h)
